Measured values from patent publication US20240269158A1, “THERAPEUTIC AGENTS AND METHODS FOR TREATMENT OF BARTONELLOSIS” (THE ADMINISTRATORS OF THE TULANE EDUCATIONAL FUND, priority 2021, published 2024).
Read-outs that look alike come from different tables or passages of the source.

Columns and labels:
[1] = tested on: B. henselae; assay: MIC assay in liquid culture media (OD600); assay type: cell-based, Bartonella henselae
Protocol: (§1) The B. henselae strains used were San Antonio 2, 267HO04, a human clinical isolate and B. vinsonii subsp. berkhoffii. Both the bacteria were initially grown on tryptic soy agar (TSA) supplemented with 5% defibrinated sheep blood plates that were either pre-made (Remel, R01198) or homemade, in a humidified atmosphere at 37° C. with 5% CO2 for 7 days. For the preparation of liquid cultures, an individual well-grown colony from the plate was resuspended in 15 ml Falcon tubes containing 3 mL of either Schneider's insect media supplemented with 10% FBS, or Grace's insect media (Gibco, 11605-094) supplemented with 10% FBS, or BAPGM serum-free liquid media. The cultures grew for 7 more days in the atmosphere as above without shaking. The number of viable bacteria was determined by either plating serial dilutions of the culture on plates for CFU or by live/dead staining. Before every experiment, bacteria were mixed well and passed through 22-gauge needle to break large clumps of bacteria.
(§2) Optical density (OD) of 7-day old bacterial liquid culture that was grown from an individual colony was measured using a spectrophotometer (Bio-Rad, SmartSpec 300, 170-2501). Bacterial culture was then diluted down to an OD of 0.1 ? 3×10^8 cfu/ml with the respective media.
(§3) To determine the MIC of the antibiotics and for the visualization of the bacterial growth, a clear 96-well plate was used. Into each well of a 96-well plate, 50 μl of the 0.1 OD bacterial culture and 50 μl of the liquid media containing antibiotics were added to the wells bringing the total volume to 100 μl of 0.05 OD bacteria (CFU ? 1.5×10^7) in each well. Wells containing only bacteria with solvent used in the dilution of the antibiotics served as a positive control to verify the growth of bacteria. As a negative control, wells containing only media and solvents were used. Each concentration of diluted antibiotic was run in 4 replicates to minimize the error rate. The 96-well plate was covered with the lid and incubated at 37° C. with 5% CO2. OD of the culture was read after 48 hrs and 96 hrs using a hybrid multi-mode microplate reader (Biotek, Synergy H4 hybrid reader) at OD600. The assay was repeated three times.
(§4) Therapeutic agent stocks were prepared in the following solvents: 10 mg/ml of ceftriaxone (USP), doxycycline (Fisher scientific, D9891-1G), gentamicin (Fisher scientific, 1405-41-0), ampicillin (Fisher scientific, 69-52-3) and azlocillin (Flightpath) in sterile cell culture grade water, whereas 5 mg/ml of azithromycin (Sigma, PZ0007-5MG) was dissolved in sterile cell culture grade DMSO. Antibiotics were then aliquoted and stored at either −80° C. or −20° C. until further use. On the day of assay, these stock concentrations were diluted to 1 mg/ml and 100 μg/ml in the respected bacterial culture media for MIC and cell-free, liquid culture MBC assays. For the DH82 cell-based MBC assay, antibiotics were diluted in EMEM media supplemented with 15% heat inactivated FBS.
(§5) The determination of susceptibility to therapeutic agents was performed in liquid culture media. Six different therapeutic agents were tested with multiple different concentrations against B. henselae and B. vinsonii. Therapeutic agent concentrations tested were as follows: Ceftriaxone 0.001, 0.01, 0.1, 0.3, 0.5, 1, 2, and 5 μg/ml; doxycycline 0.001, 0.01, 0.1, 0.3, 0.5, 1, 2, 5, and 10 μg/ml, gentamicin: 0.01, 0.1, 0.3, 0.5, 1, 2, 4, 8, and 16 μg/ml, and azithromycin: 0.001, 0.005, 0.02, 0.1, 0.3, 0.5, 1, 2, 5, and 10 μg/ml, were tested based on previous antibiotic susceptibility studies. The following azlocillin dilutions were included: 0.001, 0.005, 0.01, 0.02, 0.5, 1, 2, and 5 μg/ml. The ampicillin dilutions included were as follows: 0.001, 0.005, 0.01, 0.02, 0.5, 1, 2, 4, and 8 μg/ml. Both the species of Bartonella were susceptible to all the antibiotics that were used in BAPGM and Grace's culture liquid mediums. […]

[2] = tested on: B. vinsonii; assay: MIC assay in liquid culture media (OD600); assay type: cell-based, B. vinsonii subsp. berkhoffii; conditions: Grace's insect media
Protocol: as §1, §2, §3, §4, §5

[3] = tested on: B. henselae and B. vinsonii; assay: MIC assay, summary over both species; assay type: cell-based, Bartonella; conditions: BAPGM and Grace's liquid media
Protocol: as §2, §3
The determination of susceptibility to therapeutic agents was performed in liquid culture media. Six different therapeutic agents were tested with multiple different concentrations against B. henselae and B. vinsonii. Therapeutic agent concentrations tested were as follows: Ceftriaxone 0.001, 0.01, 0.1, 0.3, 0.5, 1, 2, and 5 μg/ml; doxycycline 0.001, 0.01, 0.1, 0.3, 0.5, 1, 2, 5, and 10 μg/ml, gentamicin: 0.01, 0.1, 0.3, 0.5, 1, 2, 4, 8, and 16 μg/ml, and azithromycin: 0.001, 0.005, 0.02, 0.1, 0.3, 0.5, 1, 2, 5, and 10 μg/ml, were tested based on previous antibiotic susceptibility studies. The following azlocillin dilutions were included: 0.001, 0.005, 0.01, 0.02, 0.5, 1, 2, and 5 μg/ml. The ampicillin dilutions included were as follows: 0.001, 0.005, 0.01, 0.02, 0.5, 1, 2, 4, and 8 μg/ml. Both the species of Bartonella were susceptible to all the antibiotics that were used in BAPGM and Grace's culture liquid mediums. MICs ranged from 0.01 to 0.1 μg/ml for ceftriaxone, doxycycline, and ampicillin, 2.0-4.0 μg/ml for gentamicin, 0.1-0.5 μg/ml for azithromycin, and 0.001-0.01 μg/ml for azlocillin. […] However, both the bacteria were not susceptible towards any of the antibiotics when tested in Schneider's insect medium (Table 1).

[4] = Bartonella henselae, BAPGM, read-out: MIC
[5] = Bartonella henselae, Grace's insect media, read-out: MIC
[6] = Bartonella henselae, Schneider's insect medium, read-out: MIC

CC[C@H]1OC(=O)[C@H](C)[C@@H](O[C@H]2C[C@@](C)(OC)[C@@H](O)[C@H](C)O2)[C@H](C)[C@@H](O[C@@H]2O[C@H](C)C[C@H](N(C)C)[C@H]2O)[C@](C)(O)C[C@@H](C)CN(C)[C@H](C)[C@@H](O)[C@]1(C)O [Azithromycin, azithromycin]
MIC [1, 4]: 0.005 to 0.02 µg/mL | MIC [1, 5]: 0.3 to 0.5 µg/mL | MIC [1, 6]: > 0.02 µg/mL | MIC ([2]; read-out: MIC): 0.1 to 0.3 µg/mL | MICs ranged [3]: 0.1 to 0.5 µg/mL

CC1(C)S[C@@H]2[C@H](NC(=O)[C@H](NC(=O)N3CCNC3=O)c3ccccc3)C(=O)N2[C@H]1C(=O)O [Azlocillin, azlocillin]
MIC [1, 4]: 0.01 to 0.02 µg/mL | MIC [1, 5]: 0.005 to 0.01 µg/mL | MIC [1, 6]: > 2 µg/mL | MIC ([2]; read-out: MIC): 0.001 to 0.005 µg/mL | MICs ranged [3]: 0.001 to 0.01 µg/mL | susceptibility / inhibition of growth [3]: most effective in inhibiting the growth of both the species of Bartonella

CO/N=C(\C(=O)N[C@@H]1C(=O)N2C(C(=O)O)=C(CSc3nc(=O)c(=O)[nH]n3C)CS[C@H]12)c1csc(N)n1 [Ceftriaxone, ceftriaxone]
MIC [1, 4]: 0.01 to 0.1 µg/mL | MIC [1, 5]: 0.01 to 0.1 µg/mL | MIC [1, 6]: > 0.3 µg/mL | MIC ([2]; read-out: MIC): 0 to 0.01 µg/mL

gentamicin
MIC ([1]; BAPGM): 0.1 to 0.5 µg/mL | MIC ([1]; Grace's insect media): 2.0 to 4.0 µg/mL | MIC ([1]; Schneider's insect medium): >1 µg/mL | MIC [2]: 2.0 to 4.0 µg/mL | MICs ranged [3]: 2.0 to 4.0 µg/mL
